The values that follow come from PMC12348691, “Amesilide, a New Bicyclic Polyketide from the Marine Fungus Amesia nigricolor MUT6601” (Molecules, 2025).

In brackets after ≈: the same amount, converted by molar mass. Read-outs that look alike come from different tables or passages of the source.

In series [1] the test system is Niemann-Pick C1-like 1 (NPC1L1) protein. On the set-up: method as in PMID 30665368. Conditions: reducing the cholesterol absorption; cited from earlier work.
The next series relates to Escherichia coli (UTI89). Briefly: Antibacterial assay (MIC), Escherichia coli UTI89. The class given is cell-based. Conditions: 20 h. As to the method:
(§1) Stock solutions of all compounds were prepared in DMSO. Two bacterial (E. coli UTI89 and S. aureus S25) and two yeast strains (C. krusei CK1 and C. albicans CA01) have been used for this study. […] Each culture was diluted 12 times to have a final OD value of 0.1. Then, 100 µL from the diluted (OD of 0.1) bacterial culture and 0.5 μL of each stock solution was added to the corresponding wells (in triplicate) in a 96-well plate to a final concentration of 50 μM. For the antifungal assay, the two strains C. krusei CK1 and C. albicans CA01 were spread on Petri plates with YPD (yeast-extract peptone dextrose) agar. Later, an isolated colony was collected in a tube containing 5mL of RGM (RPMI 1640® (21875, Invitrogen GIBCO®) + 34.56g/L MOPS) to have an OD of 0.05. The fungal culture and stock solutions of compounds were diluted and added to the wells as indicated for the antibacterial activity assay. To determine the potential inhibitory effect of extracts on fungal growth, absorbance at t = 0 h, t = 20 h (for antibacterial assay), and t = 48 h (for antifungal assay) were measured with the Biotek Synergy 2 Plate Reader at a wavelength of 600 nm and analyzed with the software Gen5 v3.08. Then, the differential OD was calculated (ODT48/20-ODT0) and compared to solvent control. […] Ampicillin was used as positive control (MIC of 0.5 µg/mL for all bacteria and 1.0 µg/mL for all fungi).

Series [2] has as its system Staphylococcus aureus (S25). The series can be described thus: Antibacterial assay (MIC/MBC), Staphylococcus aureus S25. Format: cell-based. Conditions: for MIC: 20 h. As to the method:
as §1

Another series concerns human monocytes (THP-1). The series can be described thus: Cytotoxicity assay (AlamarBlue), THP-1. Format: cell-based. Conditions: PMA-activated. As to the method:
(§2) Human erythrocytes (RBC), human monocytes (THP-1), and peripheral blood mononuclear cells (PBMC) were used for this study. THP-1 cells (TIB-202) were obtained from ATCC (https://www.atcc.org (accessed on 26 January 2025)) and activated with PMA (phorbol myristate acetate) (100 ng/mL) for 48 h. Cells were grown in RPMI 1640 medium supplemented with fetal bovine serum (FBS) 10% (10270-098, GIBCO®) and penicillin/streptomycin (1%) (15140-122 GIBCO®) at 37 °C under 5% CO2 atmosphere.
(§3) For the cytotoxicity assay, THP-1 and PBMC medium cultures were added into 96-well plates with 5 × 10^3 cells per well. A two-fold dilution concentration series of each compound was added to the plates to final concentrations of 200 − 6.25 μM. AlamarBlue (DAL1025, ThermoFisher, Waltham, MA, USA), a ready-to-use resazurin-based solution, was used to measure cell viability after treatment with the extracts. A total of 10 µL was added to each well and the plate was incubated for 6–8 h at 37 °C. Fluorescence was then measured with the Biotek Synergy 2 Plate Reader using excitation at 530 nm and emission at 590 nm. The percentage of cell death was then calculated using the following formula (Equation (3)):(3) % Cellular Death = 100 × ODt − OD100/OD0 − OD100 where ODt = the fluorescence value of the test compound, OD100 = the fluorescence value for the culture medium, and OD0 = the fluorescence value for Triton 0.12%.
In general terms: Alamar Blue is a resazurin reagent that responds to reducing activity.

For the next series, the system named is human erythrocytes (RBC). The series can be described thus: Hemolytic assay, human erythrocytes. Format: cell-based. Conditions: for IC50: Homo sapiens, Erythrocyte, 0.5 h; for cytotoxicity against human erythrocytes (RBC): result in words. As to the method: as §2
For the hemolytic assay, freshly obtained human erythrocytes (RBCs) from patients were washed twice with PBS (pH 7.4). This assay was performed at 10% hematocrit with two-fold serial dilutions from 200 μM of test compounds in a final volume of 100 μL, followed by incubation at 37 °C under 5% CO2 atmosphere for 30 min. Later, the plates were centrifugated at 3000g for 5 min and supernatant was transferred onto a new 96-well plate. Finally, RBC lysis was determined by the absorbance of the supernatant at 540 nm. Results were calculated with the following formula (Equation (2)):(2) % hemolysis = 100 × ODt − OD100/OD0 − OD100 where ODt = the absorbance value of test compounds; OD100 = the absorbance value of the medium; and OD0 = the absorbance value of the wells treated with 1% Triton-X.

Series [3] has as its system peripheral blood mononuclear cells (PBMC). Briefly: Cytotoxicity assay (AlamarBlue), PBMC. The class given is cell-based, human. Conditions: PBMC primary cells. As to the method:
as §2, §3

Series [4] concerns all bacteria (E. coli UTI89 and S. aureus S25). The series can be described thus: Antibacterial assay, positive control, all bacteria. The class given is cell-based. Conditions: Escherichia coli. As to the method:
as §1

Series [5] has as its system all fungi (C. krusei CK1 and C. albicans CA01). The series can be described thus: Antifungal assay, positive control, all fungi. Format: cell-based. Conditions: Pichia kudriavzevii. As to the method:
as §1

A further series relates to Staphylococcus aureus. Conditions: result in words; cited from earlier work.
A further series deals with Candida albicans (CA01). Briefly: Antifungal assay (MIC), Candida albicans CA01. The class given is cell-based. Conditions: 48 h. As to the method: as §1
A further series deals with (CK01). Briefly: Antifungal assay (MIC), Candida strain CK01. Format: cell-based, Candida tropicalis. Conditions: 48 h.
For series [6], the system named is Leishmania infantum (LI01). Briefly: Antiparasitic activity (MIC), Leishmania infantum LI01. The class given is cell-based.
Setting [7] is: Staphylococcus aureus (S25), OD 600 nm, inhibiting bacterial growth, read-out: MIC.
[8] abbreviates: Homo sapiens, THP-1 cell line, read-out: IC50.
Setting [9] is: RBC primary cells, hemolysis, 30 min, 10% hematocrit, read-out: IC50.
Where [10] appears, read: Homo sapiens, THP-1, THP-1 cell line.

Turning to Chamiside F, the “inhibitory activity against NPC1L1” value in series [1] was “inhibitory activity”.

As for `CC1(C)S[C@@H]2[C@H](NC(=O)[C@H](N)c3ccccc3)C(=O)N2[C@H]1C(=O)O` [Ampicillin, reference compound], the MIC (commonly the least concentration at which growth counts as inhibited) in the series on Escherichia coli (UTI89) (Escherichia coli (UTI89), OD 600 nm, read-out: MIC) was above 100 µM; in [2] (setting [7]), 1.56 µM; in series [4] it was 0.5 µg/mL; in series [5] it was 1 µg/mL. For the same compound, the IC50 (usually the midpoint of a concentration-inhibition curve) in the series with human monocytes (THP-1) (setting [8]) is above 200 µM; in the series with human erythrocytes (RBC) (setting [9]), above 200 µM; in series [3] (Homo sapiens, read-out: IC50), above 200 µM.

Turning to `CC1=CC2(O)C(C3(C)CC(C)CC(C)C(=O)O3)CC(=O)C23C(=O)N(C)C(=O)C(c2ccccc2)C3C1C` (stereo not drawn) [compound 2, chamiside A], in the series with Staphylococcus aureus, the “antibacterial activity against Staphylococcus aureus” value was “moderate antibacterial activity”.

As for `C[C@H]1Oc2cc3c(-c4c(O)cc(O)c5c(O)c6c(cc45)O[C@H](C)[C@@H](C)C6=O)c(O)cc(O)c3c(O)c2C(=O)[C@@H]1C` [compound 7, chaetochromin A], the MIC in the series on Escherichia coli (UTI89) (Escherichia coli) was above 100 µM; in series [2] (setting [7]) it was 6.25 µM; in [2] (Staphylococcus aureus), 6.25 µM; in the series on Candida albicans (CA01) (Candida albicans), above 100 µM; against (CK01) (Candida tropicalis), above 100 µM; in series [6] (Leishmania infantum), above 100 µM. The MBC (usually the smallest concentration meeting the test's criterion for killing) in [2] (Staphylococcus aureus) is 12.5 µM. For the same compound, the IC50 in the series on human monocytes (THP-1) (setting [10]) was 33.6 µM; in the series with human monocytes (THP-1) (THP-1 cell line), 33.6 to 40 µM; in the series with human erythrocytes (RBC), above 200 µM; in series [3] (Homo sapiens, PBMC), 35.4 µM; in series [3], 33.6 to 40 µM. The “cytotoxicity against human erythrocytes (RBC)” value with human erythrocytes (RBC) was “no cytotoxicity”. The “antibacterial activity against S. aureus” value with Staphylococcus aureus is given as “strong antibacterial activity”.

As for `C[C@@H]1Oc2cc3c(-c4c(O)cc(O)c5c(O)c6c(cc45)O[C@H](C)[C@@H](C)C6=O)c(O)cc(O)c3c(O)c2C(=O)[C@@H]1C` [compound 8, chaetochromin B], the MIC is above 100 µM in the series on Escherichia coli (UTI89) (Escherichia coli); 6.25 µM in series [2] (setting [7]); 6.25 µM in series [2] (Staphylococcus aureus); 100 µM in the series with Candida albicans (CA01) (Candida albicans); above 100 µM with (CK01) (Candida tropicalis); above 100 µM in [6] (Leishmania infantum). Further, the MBC in series [2] (Staphylococcus aureus) turned out to be 12.5 µM. In addition, the IC50 in the series on human monocytes (THP-1) (setting [10]) is 37.3 µM; in the series with human monocytes (THP-1) (THP-1 cell line), 33.6 to 40 µM; in the series on human erythrocytes (RBC), above 200 µM; in [3] (Homo sapiens, PBMC), 40 µM; in [3] it was 33.6 to 40 µM. The “cytotoxicity against human erythrocytes (RBC)” value in the series on human erythrocytes (RBC) was “no cytotoxicity”.

As for `C[C@@H]1[C@H](O)[C@@H](C)/C=C/C=C/C=C/C=C/C=C/C=C/C=C/[C@H](O[C@@H]2O[C@H](C)[C@@H](O)[C@H](N)[C@@H]2O)C[C@@H]2O[C@](O)(C[C@@H](O)C[C@@H](O)[C@H](O)CC[C@@H](O)C[C@@H](O)CC(=O)O[C@H]1C)C[C@H](O)[C@H]2C(=O)O` [Amphotericin B, reference compound], the MIC with Candida albicans (CA01) (Candida albicans (CA01), OD 600 nm, read-out: MIC) stood at 0.2 µM; in the series with (CK01) (Candida tropicalis (CK01), OD 600 nm, read-out: MIC), 0.2 µM (≈ 0.185 µg/mL); in series [6] (Leishmania infantum (LI01), read-out: MIC), 0.39 µM (≈ 0.36 µg/mL). The IC50 with human monocytes (THP-1) (setting [8]) was found to be 3.13 µM; with human erythrocytes (RBC) (setting [9]), 25 µM; in series [3] (Homo sapiens, read-out: IC50), 6.25 µM.
